Source: patent publication US20240285616A1, “THERAPEUTIC TREATMENT OF CHROMATINOPATHIES” (UNIVERSITA' DEGLI STUDI DI TRENTO, priority 2020, published 2024)
Like-named read-outs stand apart in the source and are kept apart here.

Tests used:
MLL4^Q4092X MSCs [1] = experiment: H3K27me3 level and PcG condensate clustering after HDAC inhibitor treatment; assay type: cell-based, human
Procedure: (§1) For immunofluorescence assays, cells were seeded on coverslips coated with 0.1% gelatin (Sigma Aldrich #G1393). When needed, cells where fixed with 4% paraformaldeide for […] at 4° C. Coverslips were processed as described: permeabilization and blocking with PBS/1% BSA/5% goat serum/0.5% Triton X-100 (blocking solution) for 1 hour at room temperature, followed by incubation with primary antibody (diluted in the blocking solution) for 2 hours at RT (or overnight at 4° C., depending on the used primary antibody), 3-5 washes in PBS and incubation with secondary antibodies (diluted in the blocking solution), DRAQ5 for nuclear staining and phalloidin-TRITC for 1 h at room temperature. Images were acquired using a Leica TCS SP5 confocal microscope with HCX PL APO 63×/1.40 objective. Confocal z stacks were acquired with sections of 0.5 μm. In cases where image analysis was performed, image acquisition settings were kept constant.
In order to automatically detect and quantify PcG and TrxG complex proteins in fluorescence cell image z-stacks, the inventors developed an algorithm that implements a method derived from (Gregoretti et al., 2016) with variants and adaptations. The algorithm performs the 2D segmentation of cell nuclei and the detection of Protein Bodies (PBs) for each slice of the stack, followed by the 3D reconstruction and identification of nuclei and PBs. […]

MLL4^Q4092X MSCs [2] = experiment: Nuclear morphology, chromatin compaction and Lamin A/C after HDAC inhibitor treatment; assay type: cell-based, human
Procedure: as §1
Confocal imaging data analyses were performed using Image J software. For 2D/3D analysis RDAQ5 DNA dye was used to identify the nucleus and define the ROI. Then the fluorescence intensity and physical parameters were determined. For the measure of volume and flatness the inventors performed a 3D analyses using the “3D plugin 596 suite”, an Image J plugin.

olKmt2d = experiment: Kmt2d morpholino injection in medaka embryos (in vivo model for KS); set-up: species or system Oryzias latipes; conditions: MO-Kmt2d injected at 0.015 mM, of 1,600 injected embryos, later developmental stages
Procedure: (§2) The Cab-strain of wt medaka fish (Oryzias latipes) was maintained following standard conditions (i.e., 12 h/12 h dark/light conditions at 27° C.). Embryos were staged according to the method proposed by Iwamatsu. All studies on fish were conducted in strict accordance with the institutional guidelines for animal research and approved by the Italian Ministry of Health: Department of Public Health, Animal Health, Nutrition, and Food Safety.
(§3) The available medaka olKmt2d (ENSORLT00000009505.1) genomic sequences were retrieved from a public database (UCSC Genome Browser, http://genome.ucsc.edu/) from human KMT2D (NM_003482.3) transcript. A morpholino (Mo: Gene Tools LLC, Oregon, USA) was designed against the ATG initiation codon within the 5′ untranslated region of the medaka ortholog of the (MO-Kmt2d: 5′-[…]-3′) of the medaka orthologous of the KMT2D gene. The specificity and inhibitory efficiencies of morpholino was determined as previously described (Conte et al., 2015). MO-Kmt2d was injected at 0.015 mM concentration into one blastomere at the one/two-cell stage. Off-target effects of the morpholino injections were excluded by repeated experiments with control morpholino or by co-injection with a p53 morpholino. For the drug treatment, chorions from injected and control embryos were removed with the hatching enzyme at St32. […]

MLL4^Q4092X MSCs [3] = experiment: Gene expression profiling (RNA-seq) of MSCs after VE-822 treatment; assay type: cell-based, human; conditions: 8 and 24 hours after ATR inhibition
Procedure: WT and MLL^4Q4092X MSCs were seeded as sparse (5000 cells/cm^2) condition and collected 48 h after plating, either untreated or at 8 and 24 hours after ATR inhibition (VE-822 treatment) (medchem express #HY-13902/cs-1861). Cells were directly lysed on plates with TRIzol (Thermo Fisher cat. #15596026), and total RNAs were extracted according to the manufacturer's instructions.
Contaminating genomic DNA was removed by DNase (Qiagen 843 cat. #79254) digestion. RNA quality and concentration were assessed using the 2100 Bioanalyzer (Agilent cat. #G2939BA) and the Qubit fluorometer (Thermo Fisher cat. #Q33226), respectively. 3′-RNA-seq libraries were prepared by using the QuantSeq 3′ mRNA-Seq Library Prep Kit FWD for Illumina (Lexogen cat. #015.24) and starting from 500 ng of total RNA. Libraries were sequenced as single reads of 50 bp with the Illumina HiSeq2500. Three independent biological replicates were performed for each cell line and time point and sequenced as independent libraries.
Raw reads from fastq files were first checked for their quality using FastQC and trimmed using Trimmomatic (Bolger et al., 2014). Trimmed reads were aligned to the reference human genome assembly hg38/GRCh38 using STAR with default parameters. […] For annotation of the reads to the genome, HOMER was employed with the following command ‘analyzeRepeats.pl rna hg38-count 3utr-rpkm’. […]

MLL4^Q4092X MSCs [4] = experiment: Nuclear to cytosolic localization of YAP/TAZ by immunofluorescence; assay type: cell-based, human; conditions: sparse condition
Procedure: Cell lines used in this study include NIH 3T3 (ATCC), HEK293T (ATCC), human primary fibroblasts derived from either healthy of Kabuki patients (Genomic and Genetic Disorders Biobank) and hTERT-immortalized human adipose-derived MSCs. Primary fibroblasts, NIH3T3 and HEK293T were maintained at 37° C. and 5% CO2 in DMEM medium supplemented with 10% Fetal Bovine Serum (Euroclone #ECS0180L), while MSCs were cultured in 1:1 DMEM/F-12 medium (Gibco #11320-074) supplemented with 10% Fetal Bovine Serum (Euroclone #ECS0180L).
For immunofluorescence assays, cells were seeded on coverslips coated with 0.1% gelatin (Sigma Aldrich #G1393). When needed, cells where fixed with 4% paraformaldeide for minutes at 4° C. […]
To quantify the nuclear to cytosolic localization of YAP-TAZ, the inventors adapted previously published MATLAB routines (Zambrano et al., 2016). […]
To estimate the average cytosolic intensity per cell, a ring of 30 pixels width (approximately 7 microns) around each segmented nuclei was found. […] The inventors then calculated for each cell the Nuclear to Cytosolic Intensity (NCI) as the ratio of the background corrected nuclear and cytosolic average YAP-TAZ intensity.

MLL4^Q4092X MSCs [5] = experiment: Chondrocyte micromass differentiation of MSCs (Alcian blue); assay type: cell-based, human; conditions: in vitro
Procedure: For chondrocyte micromass culture, a cell solution of 1.6× 10^7 viable cells/mL was produced. Micromass cultures were generated by seeding 5-μL droplets of cell solution. After cultivating micromass cultures for 2 hours under high humidity conditions, MSCs medium was added. The day after, the medium was changed with chondrogenesis medium (Gibco #A10069-01) supplemented with Stem-Pro Chondrogenesis supplement (Gibco #10064-01). For complete differentiation, cells were maintained in culture for three weeks changing media regularly.
To detect chondrogenesis, cells were washed with PBS and fixed in 4% formaldehyde for 1 hr at RT and then washed with PBS. Cells were incubated with Alcian blue solution (1 g/L in 0.1 M HCl, Sigma-Aldrich #B8438) for 6 hrs at room temperature and then extensively washed with PBS. To measure Alcian blue deposition, dry wells were incubated with 1 mL of 6 N Guanidine HCl for 1 hour and then the absorbance was measured with a spectofotometer measured between 600 and 650 nm.

MLL4^Q4092X MSCs [6] = experiment: DNA damage response in MSCs after ATR inhibition (immunofluorescence); assay type: cell-based, human; conditions: MLL4^Q4092X MSCs treated with ATR inhibitor
Procedure: as §1

Kmt2d morphants = assay type: in vivo; conditions: Kmt2d morphant medaka embryos grown in 0.15 μM VE822
Procedure: as §2, §3

## CC(/C=C/C(=O)NO)=C\[C@@H](C)C(=O)c1ccc(N(C)C)cc1 [TSA]
MLL4^Q4092X MSCs [1]
  H3K27me3 level: reduced
  clustering of PcG condensates: reduced
MLL4^Q4092X MSCs [2]
  chromatin organization and nuclear architecture: rescued the altered chromatin organization and nuclear architecture
  nuclear morphology and structure (relative abundance of Lamin A/C): sufficient to re-establish proper nuclear morphology and structure

## MO-Kmt2d: morpholino against the ATG initiation codon of medaka Kmt2d, 5′-CCCTGCTGCTGCTTTGATCTTTTTG-3′ (all phosphorodiamidate morpholino (PMO))
olKmt2d
  embryos with morphological cranio-facial anomalies: 73±5%

## CNCc1ccc(-c2cc(-c3nc(-c4ccc(S(=O)(=O)C(C)C)cc4)cnc3N)on2)cc1 [VE-822, BERZOSERTIB]
MLL4^Q4092X MSCs [3]
  expression of a subset of ATR responsive genes (architectural chromatin genes): rescued
MLL4^Q4092X MSCs [4]
  YAP/TAZ nuclear localization (mechanical properties of MSCs): restored YAP/TAZ nuclear localization
MLL4^Q4092X MSCs [4]; listed as VX-970
  YAP/TAZ nuclear localization (mechanical properties of MSCs): sufficient to restore the mechanical properties
MLL4^Q4092X MSCs [5]; listed as ATR inhibitor
  chondrogenic differentiation potential: partially rescued
MLL4^Q4092X MSCs [5]; listed as VX-970
  chondrogenic differentiation potential: sufficient to abolish the differentiation defects
MLL4^Q4092X MSCs [6]
  DNA damage response: without affecting DNA damage response
Kmt2d morphants; listed as ATR inhibitor
  chondrogenic and skeleton defects, head morphogenesis: sufficient to restore the chondrogenic and skeleton defects
Kmt2d morphants; listed as VX-970
  chondrogenic and skeleton defects, head morphogenesis: sufficient to completely recover the chondrogenic and osteogenic defects
